# Reference: patent publication US12428413B2 (CHDI Foundation, Inc., priority 2019, dated 2025)
# Key:
# [1] = system: cellular ROCK activity (cofilin phosphorylation at Ser3) in A7r5 rat smooth muscle cells; assay: Cellular ROCK activity: cofilin (Ser3) phosphorylation, In-Cell Western assay; assay type: cell-based; settings: Rattus norvegicus, A7R5, 1 h, 1 hour compound incubation, phospho-cofilin (Ser3), read-out: CELL_IC50
# Protocol: The potency of Rho-associated protein kinase (ROCK) inhibitors was quantified by measuring cofilin phosphorylation levels at Serine 3 (Ser3) as a measure of cellular ROCK activity by In-Cell Western assay. […] The assay plate was imaged and quantified on the Odyssey imager (LICOR Biosciences).
# ROCK inhibitor compound plate preparation. […] Stock compounds and control are added directly to ECHO plate (Labcyte) by Janus.
# A7r5 cell culture and plating. A7r5 cells were cultured according to standard cell culture protocols in A7r5 growth media (DMEM with Glutamax and 10% FBS). […] 45 μl of re-suspended A7r5 cells were plated at 3000 cells/well in a sterile, μclear, black, F-bottom, 384-well microplate (Greiner bio-one). Seeded cells allowed to settle in wells on the bench for 1 hour before incubation at 37° C., 5% CO2 overnight.
# Assay reagent and antibody preparations. Wash buffer was prepared by addition of Tween-20 to Dulbecco's Phosphate Buffered Saline (DPBS) (1×) without calcium and magnesium to make 1% Tween-20 as final concentration. Blocking buffer was prepared by addition of TritonX-100 to SeaBlock buffer (ThermoFisher) to make 0.3% TritonX-100 as final concentration. […] Secondary antibody mix was prepared by diluting donkey anti-rabbit 800CW antibody (LICOR Biosciences) 1:1000 in SeaBlock buffer.
# Assay procedure. Compound plate was diluted by addition of 19 μl/well compound dilution buffer (DMEM with Glutamax) using 125 μl 16-channel Matrix electronic pipette. 5 μl diluted compound was stamped from compound plate to assay plate containing A7r5 cells using Bravo (384-well head from Agilent) liquid handler and incubated at 37° C., 5% CO2 for 1 hour. Cells were fixed by addition of 5 μl 37% formaldehyde using 125 μl 16-channel Matrix electronic pipette and incubation for 20 min at room temperature. The assay plate was washed 5× with 60 μl/well wash buffer. […] Next, the assay plate was sealed, centrifuged at 1000 rpm for 5 seconds and incubated at 4° C. overnight on an orbital shaker at 300 rpm. […] The assay plate was centrifuged at 1000 rpm for 5 seconds and incubated on an orbital shaker at 300 rpm for 60 min at room temperature. Finally, assay plate was washed and wells left empty before measurement of 700 nm and 800 nm fluorescence intensities on Odyssey imager set at 4.0 mm focus offset.
# [2] = molecular target: human catalytic domain ROCK II protein (amino acids 5-554) with a N-terminal GST tag (Homo sapiens, UniProt O75116); assay: biochemical
# Chain of human catalytic domain ROCK II protein (amino acids 5-554) with a N-terminal GST tag (O75116 5-554): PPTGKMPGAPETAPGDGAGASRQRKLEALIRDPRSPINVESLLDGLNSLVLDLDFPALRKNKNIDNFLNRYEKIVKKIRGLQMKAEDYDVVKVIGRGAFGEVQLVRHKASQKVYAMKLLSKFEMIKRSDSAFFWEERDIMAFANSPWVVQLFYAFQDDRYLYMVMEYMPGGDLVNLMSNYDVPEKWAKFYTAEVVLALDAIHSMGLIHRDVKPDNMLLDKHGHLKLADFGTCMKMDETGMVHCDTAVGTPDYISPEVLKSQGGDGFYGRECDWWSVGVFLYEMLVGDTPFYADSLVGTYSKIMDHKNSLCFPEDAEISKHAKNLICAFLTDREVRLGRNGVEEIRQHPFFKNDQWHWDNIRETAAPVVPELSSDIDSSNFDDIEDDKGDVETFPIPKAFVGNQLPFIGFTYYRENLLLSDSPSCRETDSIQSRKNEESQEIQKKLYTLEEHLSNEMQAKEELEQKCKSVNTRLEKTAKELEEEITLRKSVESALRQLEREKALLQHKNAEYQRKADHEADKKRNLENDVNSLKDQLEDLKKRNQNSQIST
# Protocol: The potency of Rho-associated protein kinase (ROCK) II inhibitors was quantified by measuring ROCKII kinase domain enzymatic activity using ADP-Glo™ Kinase Assay format. […] ADP-Glo™ Reagent was added that terminates ROCKII reaction and depletes remaining ATP. Kinase Detection Reagent was added to convert ADP to ATP and allow newly synthesized ATP to be measured using luciferase/luciferin reaction. The light generated correlates to the amount of ADP generated in the ROCKII biochemical reaction, which is indicative of ROCKII activity.
# ROCK inhibitor compound plate preparation. Lyophilized ROCK inhibitors were re-suspended to a final concentration of 10 mM in 100% dimethyl sulfoxide (DMSO) and control reference compound, Fasudil HCl, to a final concentration of 100 mM in 100% DMSO using Janus automated liquid handler workstation (Perkin Elmer) and were stored at room temperature under nitrogen. Stock compounds and controls were added directly to ECHO plate (Labcyte) by Janus. The Echo 555 liquid handler (Labcyte) dispensed duplicate 10-point concentration-response curves for each compound directly into 384-well, black, U-bottom assay plate (Matrix Technologies Ltd) at 100× final assay concentration. Final compound or control volume per well is 100 nl (0.1 μl). Assay standards were prepared by Echo dispensing 5 nl of 100 mM Fasudil HCl and 95 nl DMSO for full inhibition control (50 μM final assay concentration and 1% DMSO) and 100 nl of DMSO for full activity control (1% DMSO).
# The ROCKII catalytic domain enzyme was human catalytic domain ROCK II protein (amino acids 5-554) with a N-terminal GST tag (SignalChem).
# Preparation of S6K peptide substrate (20 μM) and ATP (10 μM). The S6K peptide sequence (amino acid sequence [sequence]) was based on human 40 S ribosomal protein S6 (amino acids 230-238) (SignalChem). […]
# Assay procedure. […] The assay plate was further incubated in a polystyrene box for 30 min at room temperature without the seal and luminescence signal was measured using EnVision (Perkin Elmer) in top read mode.
Structure (SMILES),IC50 [1] [nM],IC50 [2] [nM]
"Cc1cc2c([C@@H](C)NC(=O)N3CCN(c4ccnc(F)c4)C[C@H]3C)cccc2o1 [Example 4, (R)-4-(2-Fluoropyridin-4-yl)-2-methyl-N—((R)-1-(2-methylbenzofuran-4-yl)ethyl)piperazine-1-carboxamide]",356,–
"C[C@@H]1CN(c2ccnc(F)c2)CCN1C(=O)NCc1cccc2c1OC(F)(F)O2 [Example 5, (R)—N-((2,2-Difluorobenzo[d][1,3]dioxol-4-yl)methyl)-4-(2-fluoropyridin-4-yl)-2-methylpiperazine-1-carboxamide]",–,864
"C[C@@H]1CN(c2ccnc(F)c2)CCN1C(=O)NCc1cccc2c1OCO2 [Example 6, (R)—N-(Benzo[d][1,3]dioxol-4-ylmethyl)-4-(2-fluoropyridin-4-yl)-2-methylpiperazine-1-carboxamide]",–,117
"Cc1cnc2cccc([C@H](C)NC(=O)N3CCN(c4ccnc(F)c4)C[C@H]3C)n12 [Example 10, (R)-4-(2-Fluoropyridin-4-yl)-2-methyl-N—((S)-1-(3-methylimidazo[1,2-a]pyridin-5-yl)ethyl)piperazine-1-carboxamide]",≥ 5000,–
"C[C@@H]1CN(C(=O)N[C@H](C)c2ccc(F)cc2Cl)CCN1c1ccnc(F)c1 [Example 14, (R)—N—((R)-1-(2-Chloro-4-fluorophenyl)ethyl)-4-(2-fluoropyridin-4-yl)-3-methylpiperazine-1-carboxamide]",–,3410
"C[C@@H](NC(=O)N1CCN(c2ccncc2F)CC1)c1ccccc1Br [Example 19, (R)—N-(1-(2-Bromophenyl)ethyl)-4-(3-fluoropyridin-4-yl)piperazine-1-carboxamide]",1470,–
"C[C@@H](NC(=O)N1CCN(c2ccncc2F)CC1)c1ccc(F)cc1Cl [Example 21, (R)—N-(1-(2-Chloro-4-fluorophenyl)ethyl)-4-(3-fluoropyridin-4-yl)piperazine-1-carboxamide]",1780,–
"C[C@@H](NC(=O)N1CCN(c2ccncc2F)CC1)c1cccc2ccn(C)c12 [Example 32, (R)-4-(3-fluoropyridin-4-yl)-N-(1-(1-methyl-1H-indol-7-yl)ethyl)piperazine-1-carboxamide]",410,–
"O=C(NCc1cccc2occc12)N1CCN(c2ccncc2F)CC1 [Example 38, N-(Benzofuran-4-ylmethyl)-4-(3-fluoropyridin-4-yl)piperazine-1-carboxamide]",761,–
"C[C@@H]1CN(c2ccncc2F)CCN1C(=O)N[C@H](C)c1ccccc1Cl [Example 42, (R)—N—((R)-1-(2-Chlorophenyl)ethyl)-4-(3-fluoropyridin-4-yl)-2-methylpiperazine-1-carboxamide]",73,–
"C[C@@H]1CN(c2ccncc2F)CCN1C(=O)N[C@H](C)c1ccccc1Br [Example 45, (R)—N—((R)-1-(2-Bromophenyl)ethyl)-4-(3-fluoropyridin-4-yl)-2-methylpiperazine-1-carboxamide]",125,–
"C[C@@H]1CN(c2ccncc2F)CCN1C(=O)N[C@H](C)c1cccc(F)c1Cl [Example 47, (R)—N—((R)-1-(2-Chloro-3-fluorophenyl)ethyl)-4-(3-fluoropyridin-4-yl)-2-methylpiperazine-1-carboxamide]",131,–
"C[C@H](NC(=O)N1CCN(c2ccncc2F)C[C@H]1C)c1cccc(F)c1Cl [Example 48, (R)—N—((S)-1-(2-chloro-3-fluorophenyl)ethyl)-4-(3-fluoropyridin-4-yl)-2-methylpiperazine-1-carboxamide]",279,–
"COc1ccc(Cl)c([C@@H](C)NC(=O)N2CCN(c3ccncc3F)C[C@H]2C)c1 [Example 49, (R)—N—((R)-1-(2-Chloro-5-methoxyphenyl)ethyl)-4-(3-fluoropyridin-4-yl)-2-methylpiperazine-1-carboxamide]",164,–
"COc1cc(F)cc([C@@H](C)NC(=O)N2CCN(c3ccncc3F)C[C@H]2C)c1 [Example 51, (R)—N—((R)-1-(3-Fluoro-5-methoxyphenyl)ethyl)-4-(3-fluoropyridin-4-yl)-2-methylpiperazine-1-carboxamide]",15.2,–
"C[C@@H]1CN(c2ccncc2F)CCN1C(=O)N[C@H](C)c1cccnc1 [Example 52, (R)-4-(3-Fluoropyridin-4-yl)-2-methyl-N—((R)-1-(pyridin-3-yl)ethyl)piperazine-1-carboxamide]",234,–
"C[C@@H]1CN(c2ccncc2F)CCN1C(=O)N[C@H](C)c1cccc2nccn12 [Example 58, (R)-4-(3-fluoropyridin-4-yl)-N—((R)-1-(imidazo[1,2-a]pyridin-5-yl)ethyl)-2-methylpiperazine-1-carboxamide]",17.6,–
"Cc1cc2c([C@@H](C)NC(=O)N3CCN(c4ccncc4F)C[C@H]3C)cccc2o1 [Example 60, (R)-4-(3-Fluoropyridin-4-yl)-2-methyl-N—((R)-1-(2-methylbenzofuran-4-yl)ethyl)piperazine-1-carboxamide]",33.1,–
"C[C@@H]1CN(c2ccncc2F)CCN1C(=O)N[C@H](C)c1cccc2ccn(C)c12 [Example 63, (R)-4-(3-Fluoropyridin-4-yl)-2-methyl-N—((R)-1-(1-methyl-1H-indol-7-yl)ethyl)piperazine-1-carboxamide]",44.2,–

Structure (SMILES),IC50 [1] [nM],IC50 [2] [nM]
"Cc1nc2c([C@@H](C)NC(=O)N3CCN(c4ccncc4F)C[C@H]3C)cccc2o1 [Example 69, (R)-4-(3-Fluoropyridin-4-yl)-2-methyl-N—((R)-1-(2-methylbenzo[d]oxazol-4-yl)ethyl)piperazine-1-carboxamide]",104,–
"Cc1nc2c([C@H](C)NC(=O)N3CCN(c4ccncc4F)C[C@H]3C)cccc2o1 [Example 70, (R)-4-(3-Fluoropyridin-4-yl)-2-methyl-N—((S)-1-(2-methylbenzo[d]oxazol-4-yl)ethyl)piperazine-1-carboxamide]",3000,–
"C[C@@H]1CN(c2ccncc2F)CCN1C(=O)NCc1cccc2c1OCO2 [Example 75, (R)—N-(Benzo[d][1,3]dioxol-4-ylmethyl)-4-(3-fluoropyridin-4-yl)-2-methylpiperazine-1-carboxamide]",150,–
"C[C@@H]1CN(c2ccncc2F)CCN1C(=O)NCc1cccc2occc12 [Example 76, (R)—N-(Benzofuran-4-ylmethyl)-4-(3-fluoropyridin-4-yl)-2-methylpiperazine-1-carboxamide]",86.1,–
"C[C@@H]1CN(c2ccncc2F)CCN1C(=O)NCc1cccc2c1cnn2C [Example 79, (R)-4-(3-Fluoropyridin-4-yl)-2-methyl-N-((1-methyl-1H-indazol-4-yl)methyl)piperazine-1-carboxamide]",2010,–
"C[C@@H]1CN(c2ccncc2F)CCN1C(=O)NCc1cccc2ncccc12 [Example 80, (R)-4-(3-Fluoropyridin-4-yl)-2-methyl-N-(quinolin-5-ylmethyl)piperazine-1-carboxamide]",75.5,–
"CC[C@@H]1CN(c2ccncc2F)CCN1C(=O)N[C@H](C)c1cccc(OC)c1 [Example 83, (R)-2-Ethyl-4-(3-fluoropyridin-4-yl)-N—((R)-1-(3-methoxyphenyl)ethyl)piperazine-1-carboxamide]",31.4,–
COc1cccc([C@@H](C)NC(=O)N2CCN(c3ccnc(F)c3)CC2)c1 [Example 101],871,–
C[C@@H](NC(=O)N1CCN(c2ccnc(F)c2)CC1)c1cccc2c1CCO2 [Example 102],198,–
C[C@@H](NC(=O)N1CCN(c2ccnc(F)c2)CC1)c1cccc2occc12 [Example 104],830,–
C[C@@H]1CN(c2ccnc(F)c2)CCN1C(=O)N[C@H](C)c1cccc(OC(F)F)c1 [Example 108],638,–
C[C@@H]1CN(c2ccnc(F)c2)CCN1C(=O)N[C@H](C)c1ccccc1Cl [Example 109],1090,–
COc1cccc([C@@H](C)NC(=O)N2CCN(c3ccnc(F)c3)[C@@H](C)C2)c1 [Example 117],107,–
COc1cc(F)cc([C@@H](C)NC(=O)N2CCN(c3ccncc3F)CC2)c1 [Example 128],163,–
COc1cccc([C@@H](C)NC(=O)N2CCN(c3ccncc3F)C[C@H]2C)c1Cl [Example 135],1040,–
COc1cccc([C@H](C)NC(=O)N2CCN(c3ccncc3F)C[C@H]2C)c1Cl [Example 140],2620,–
C[C@@H](NC(=O)N1CCN(c2ccncc2F)[C@@H](C)C1)c1cccc2occc12 [Example 148],71.6,–
C[C@H]1CN(C(=O)NCc2cccc(OC(F)F)c2)CCN1c1ccncc1F [Example 149],2740,–
C[C@@H]1CN(c2c(F)cncc2F)CCN1C(=O)N[C@H](C)c1cccc2c1CCO2 [Example 156],4.9,–
